Like-named read-outs stand apart in the source and are kept apart here. Blank lines part the entries; values can stand above or below the compound they belong to. Where a SMILES comes first, the peptide text is derived from it. Bridges are numbered along the chain shown (N, C = ends).
What was measured:
[1] = system: Aβ25-35-induced long-term memory deficits; experiment: Step-through passive avoidance test (STPA), D09-D10; format: in vivo, mice
[2] = system: Aβ25-35-induced short-term memory deficits; experiment: Spontaneous alternation performance (Y-maze), treatment started 1 hour after Aβ25-35 injection, tested D08; format: in vivo, mice; conditions: for Y-maze % (Sc.Aβ / Vhc = 100) / Y-maze Mean, percentage of alternation: D08
[3] = system: Aβ25-35-induced short-term memory deficits; experiment: Long-term study (120 days): weekly Y-maze, NX218 and/or DPZ based treatments; format: in vivo, mice
Experimental: To investigate the potential of NX218 treatment to maintain cognitive restoration for a longer duration and to work as a 2nd line treatment when DPZ lose its activity: a long-term study (120 days) was performed in the Aβ25-35 mouse model of Tauopathies.
Mice were assigned to 6 treatment groups with 5-6 animals per group as described below.
From D01 until D120, mice of groups 1 and 2 were administered IP once a day (o.d.) with vehicle (water for injection).
Test compound NX218: • From D11 until D38, mice of group 3 were administered IP o.d. with NX218 at 2 mg/kg (mice were not treated with vehicle from D01 until D10). • From D01 until D120, mice of group 4 were administered IP o.d. with NX218 at 2 mg/kg.
DPZ rescued by test compound NX218: • From D01, mice of group 5 were administered PO by gavage o.d with DPZ at its active dose (1 mg/kg) until its effect disappears. Its efficacy disappeared on D36. DPZ was administered until D43 and then from D44, NX218 replaced DPZ until D78 via IP administration once a day at its active dose (2 mg/kg). • From D79 until D99: NX218 was administered via IP administration o.d. at a higher dose (4 mg/kg). • From D100 until D113 NX218 was administered via IP administration o.d. at a higher dose (8 mg/kg). • Administration of NX218 was stopped from D114 until animals were sacrificed.
Test compound NX218 in combination with DPZ: • From D01 until D120, mice of group 6 were co-administered with NX218 and DPZ at their respective subactive doses: • NX218: IP o.d., 0.1 mg/kg • DPZ: PO o.d., 0.25 mg/kg
All groups performed one behavioral test every week starting on D08 (7 days after Aβ25-35 peptide injection) to monitor the effects of the compounds:
Spontaneous alternation procedure in the Y-maze (YM, assessing spatial short-term/working memory as described in example 3) on D08, D15, D22, D29, D36, D43, D50, D57, D64, D71, D78, D85, D92, D99, D106, D113 and D120.

[4] = Preliminary PK study in rat; format: in vivo; conditions: slow bolus IV 49 mg/kg of NX210
Experimental: (§1) Therefore NX210 PK in animals is followed by the measurement of its cyclic form NX218. First a preliminary PK study in rat was performed in order to validate the method for detecting NX218 in plasma then translated to monkey by performing a more robust PK study with repeated experiments. All PK studies were performed with NaCl 0.9% as vehicle.

PK study in monkey = format: in vivo; conditions: for half-life: plasma, iv, 10 mg/kg
Experimental: as §1
In the 3 monkeys tested, data were reproducible after repeated testing at different days (D22, D37 and D51), after bolus IV injection of 10 mg/kg of NX210.

[5] = once a day, NX210 0.1 mg/kg, NX218 0.1 mg/kg, DPZ 0.25 mg/kg
[6] = monkey plasma NX218 after bolus IV 10 mg/kg NX210, mean

Structure (SMILES): COc1cc2c(cc1OC)C(=O)C(CC1CCN(Cc3ccccc3)CC1)C2 (centres unmarked) [DPZ, Donepezil, reference compound]
EL % (Sc.Aβ / Vhc = 100) ([1]; PO 0.25 mg/kg once a day): 445%
EL Mean, escape latency, retention session ([1]; PO 0.25 mg/kg once a day): 88.67 s
STL % (Sc.Aβ / Vhc = 100) ([1]; PO 0.25 mg/kg once a day): 39%
STL Mean, step-through latency, retention session ([1]; PO 0.25 mg/kg once a day): 109.33 s
EL % (Sc.Aβ / Vhc = 100) ([1]; PO 1 mg/kg once a day): 122%
EL Mean, escape latency, retention session ([1]; PO 1 mg/kg once a day): 24.25 s
STL % (Sc.Aβ / Vhc = 100) ([1]; PO 1 mg/kg once a day): 94%
STL Mean, step-through latency, retention session ([1]; PO 1 mg/kg once a day): 265.83 s
effect on contextual long-term memory deficits (STL and EL) at subactive dose, in words [1, 5]: do not impede
Y-maze % (Sc.Aβ / Vhc = 100) ([2]; PO 0.25 mg/kg once a day): 56%
Y-maze Mean, percentage of alternation ([2]; PO 0.25 mg/kg once a day): 41.82%
Y-maze % (Sc.Aβ / Vhc = 100) ([2]; PO 1 mg/kg once a day): 93%
Y-maze Mean, percentage of alternation ([2]; PO 1 mg/kg once a day): 68.90%
effect on Aβ25-35-induced short-term memory deficits (Y-maze) at subactive dose, in words [2, 5]: do not impede
duration of efficacy (Y-maze), in words ([3]; Group 5, DPZ PO 1 mg/kg o.d.): efficient only until D36
% of alternation at DPZ resistance ([3]; Group 5, after 4 weeks of DPZ treatment): 37%
Y-maze (D43) Mean (percentage of alternation) ([3]; Group 5: DPZ 1 mg/kg PO o.d. D01-D43, tested D43): 38.73%
Y-maze (D43) % ([3]; Group 5: DPZ 1 mg/kg PO o.d. D01-D43, tested D43, Group 1 = 100): 52%
Y-maze (D08) Mean, percentage of alternation ([3]; Group 5: DPZ 1 mg/kg PO o.d. from D01, tested D08): 72.08%
Y-maze (D08) % ([3]; Group 5: DPZ 1 mg/kg PO o.d. from D01, tested D08, Group 1 = 100): 98%
Y-maze (D15) Mean, percentage of alternation ([3]; Group 5: DPZ 1 mg/kg PO o.d. from D01, tested D15): 76.00%
Y-maze (D15) % ([3]; Group 5: DPZ 1 mg/kg PO o.d. from D01, tested D15, Group 1 = 100): 98%
Y-maze (D22) Mean, percentage of alternation ([3]; Group 5: DPZ 1 mg/kg PO o.d. from D01, tested D22): 79.07%
Y-maze (D22) % ([3]; Group 5: DPZ 1 mg/kg PO o.d. from D01, tested D22, Group 1 = 100): 106%
Y-maze (D29) Mean, percentage of alternation ([3]; Group 5: DPZ 1 mg/kg PO o.d. from D01, tested D29): 62.05%
Y-maze (D29) % ([3]; Group 5: DPZ 1 mg/kg PO o.d. from D01, tested D29, Group 1 = 100): 80%
Y-maze (D36) Mean (percentage of alternation) ([3]; Group 5: DPZ 1 mg/kg PO o.d. from D01, tested D36): 36.23%
Y-maze (D36) % ([3]; Group 5: DPZ 1 mg/kg PO o.d. from D01, tested D36, Group 1 = 100): 49%

time after injection from which NX218 became impossible to quantify in plasma [4]: 3 h
AUC (PK study in monkey; [6]): 960 ng·h/mL
AUC(0-inf) (PK study in monkey; [6]): 1060 ng·h/mL
Cmax (PK study in monkey; [6]): 19300 ng/mL
Tmax (PK study in monkey; [6]): 0 h
clearance (PK study in monkey; [6]): 190 mL/min/kg
Vd (PK study in monkey; monkey plasma NX218 after bolus IV 10 mg/kg NX210, mean, read-out: VSS): 0.0936 L/kg
plasma concentration course after injection, in words (PK study in monkey; monkey, bolus IV 10 mg/kg of NX210): rapidly decreased up to 30 minutes
half-life (PK study in monkey; monkey, monkey plasma NX218 after bolus IV 10 mg/kg NX210, mean, read-out: t½): 12.7 min
half-life (PK study in monkey; monkey, monkey, bolus IV 10 mg/kg NX210, NX218 measured, read-out: half-life): ~12 min
Structure (SMILES): N=C(N)NCCC[C@@H]1NC(=O)[C@H](CO)NC(=O)[C@@H](NC(=O)[C@H](CO)NC(=O)[C@H](CO)NC(=O)[C@H](Cc2c[nH]c3ccccc23)NC(=O)CNC(=O)[C@H](CO)NC(=O)[C@@H](N)Cc2c[nH]c3ccccc23)CSSC[C@@H](C(=O)NCC(=O)O)NC(=O)[C@H](CO)NC1=O [NX218, W-S-G-W-S-S-C-S-R-S-C-G] (H-WSGWSSCSRSCG-OH; disulfide 7-11; N-terminus and C-terminus assumed)

Reference: US20230212225A1, “PEPTIDE COMPOSTIONS AND METHODS FOR TREATING TAUOPATHIES” (AXOLTIS PHARMA, priority 2019, published 2023)
